We go through four substances from publication PMC6570535 (ACS infectious diseases, 2019).

Assay [1] concerns the target T1, fsr QS circuitry (Enterococcus faecalis, UniProt A0ACD6TCR9). In words: β-galactosidase cell-based bacterial reporter assay, QS activation. As to conditions: E. faecalis pGelE-lacZ reporter strain. Background: In a reporter assay the amount or activity of a reporter protein is the signal.
In assay [2] the target is T1, fsr QS circuitry. Nature of the assay: β-galactosidase reporter assay, inhibition of competitor GBAP signal. The format is cell-based, E. faecalis. As to conditions: competition with GBAP.
Assay [3] concerns the target T1, fsr QS circuitry. As to conditions: read-out: EC50 [95% CI]; previously published analog shown for comparison; ref [19]; cited from earlier work.

No end group written: not given here. A value given as a limit tells only on which side of the number the result lay.

In the case of Ac-GBAP-Des(Q1N2)[N-MeQ9] [Peptide 8], the “activity as activator” value at fsr QS circuitry [1] was “lost all activity”. Besides, on fsr QS circuitry [2], the “inhibitory activity” value was “neither of these three analogs exhibit any inhibitory activity”.

What is called EC50 is the midpoint of the concentration-response curve. In the case of “Ac-GBAP-Des(Q1N2) (Ac-SPNIFGQWM; also: cyclic, ring not given here) [Peptide 2]”, the EC50 in the assay with fsr QS circuitry [3] was 1.01 nM.

Consider Ac-GBAP-Des(Q1N2)[N-MeG8] [Peptide 7], for which, at fsr QS circuitry [1], the “activity as activator” value is “lost all activity”. Moreover, the “inhibitory activity” value at fsr QS circuitry [2] is on record as “neither of these three analogs exhibit any inhibitory activity”.

For GBAP-F7A, the EC50 on fsr QS circuitry [3] is > 1000 nM.
